Among the test systems are SR leukemia; DU-145 prostate; T-47D breast; HL-60(TB) leukemia; UO-31 renal; OVCAR-5 ovarian; SF-268 CNS; LOX IMVI melanoma; NCI-H23 lung; COLO 205 colon.
What all share (assay): DTP human tumour cell line panel, 48 h

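Dose response: 5 concentrations. Exposure: 48 h. Format: 96-well plates. Endpoint: linear interpolation; highest concentration if not reached. GI50 = concentration required for 50% inhibition of growth. TGI: total growth inhibition.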

Regarding `CC(C)[C@]12O[C@H]1[C@@H]1O[C@]13[C@]1(O[C@H]1C[C@H]1c4c(C(=O)c5ccccc5)oc(OC(=O)c5ccccc5)c4CC[C@@]13C)[C@@H]2O`, the GI50 is 0.0303 µM with SR leukemia; 0.0204 µM in the experiment on DU-145 prostate; 0.0281 µM in the experiment on T-47D breast; 0.023 µM with HL-60(TB) leukemia; 0.0223 µM with UO-31 renal; 0.0401 µM in the experiment on OVCAR-5 ovarian. For the same molecule, the GI50 with SF-268 CNS was 0.0338 µM; in the experiment with LOX IMVI melanoma, 0.0144 µM; with NCI-H23 lung, less than 0.0105 µM. In addition, the TGI in the experiment on DU-145 prostate is 15.3 µM; in the experiment with T-47D breast, 0.916 µM; in the experiment with HL-60(TB) leukemia, more than 100 µM; in the experiment on UO-31 renal it was 10.5 µM; in the experiment with OVCAR-5 ovarian, more than 100 µM; in the experiment on SF-268 CNS, 1.6 µM. Moreover, the figures for the TGI with LOX IMVI melanoma and with NCI-H23 lung were 14.8 µM and 0.111 µM, respectively.
With `COc1ccc(C2CC(c3cc(OC)c(OC)c(OC)c3)=NN2)cc1` (stereo not drawn), the GI50 in the experiment on SR leukemia was 1.01 µM; in the experiment with DU-145 prostate, 33.9 µM; in the experiment on T-47D breast, 3.61 µM; in the experiment on HL-60(TB) leukemia, 2.19 µM; in the experiment with UO-31 renal, 4.82 µM; in the experiment with COLO 205 colon, 4 µM. The GI50 was 49.3 µM in the experiment on OVCAR-5 ovarian, 20 µM in the experiment with SF-268 CNS, 5.52 µM in the experiment with LOX IMVI melanoma and 12.9 µM in the experiment on NCI-H23 lung. Also, the TGI in the experiment with SR leukemia is 4.43 µM; in the experiment on DU-145 prostate, more than 100 µM; with T-47D breast, more than 100 µM; in the experiment with HL-60(TB) leukemia it was 12 µM; in the experiment with UO-31 renal, more than 100 µM; with COLO 205 colon it was 31 µM. Also, the TGI in the experiment on OVCAR-5 ovarian, in the experiment on SF-268 CNS, with LOX IMVI melanoma and with NCI-H23 lung was more than 100 µM each time.
For `CCN1C(=O)N(c2c(F)c(OC)cc(OC)c2F)Cc2cnc3[nH]c(CN4CCOCC4)cc3c21`, the GI50 was 1.62 µM in the experiment with SR leukemia; 1.99 µM in the experiment with DU-145 prostate; 3.04 µM in the experiment with T-47D breast; 3.05 µM with HL-60(TB) leukemia; 0.878 µM with UO-31 renal; 3.15 µM in the experiment with COLO 205 colon. Besides, the GI50 is 9.23 µM in the experiment on OVCAR-5 ovarian, 2.19 µM in the experiment with SF-268 CNS, 2.37 µM in the experiment on LOX IMVI melanoma and 7.03 µM in the experiment with NCI-H23 lung. Further, the TGI was 9.95 µM with SR leukemia; more than 100 µM with DU-145 prostate; 25 µM in the experiment with T-47D breast; more than 100 µM with HL-60(TB) leukemia; more than 100 µM in the experiment with UO-31 renal; more than 100 µM in the experiment with COLO 205 colon. In addition, the TGI in the experiment with OVCAR-5 ovarian, in the experiment with SF-268 CNS, in the experiment on LOX IMVI melanoma and in the experiment with NCI-H23 lung was more than 100 µM in each case.
In the case of `Cn1c(=O)c(Cc2ccc(F)cc2F)cc2cnc(NC3CCOCC3)nc21`, the GI50 in the experiment with SR leukemia was more than 25 µM; with DU-145 prostate, more than 25 µM; in the experiment on T-47D breast, 9.47 µM; in the experiment on HL-60(TB) leukemia, more than 25 µM; in the experiment on UO-31 renal, 11.5 µM; with COLO 205 colon, more than 25 µM. For the same molecule, the GI50 with OVCAR-5 ovarian, in the experiment on SF-268 CNS, in the experiment with LOX IMVI melanoma and in the experiment on NCI-H23 lung was more than 25 µM throughout. Also, the TGI in the experiment with SR leukemia, in the experiment with DU-145 prostate, in the experiment with T-47D breast, in the experiment with HL-60(TB) leukemia, in the experiment with UO-31 renal and with COLO 205 colon was more than 25 µM throughout. The TGI in the experiment with OVCAR-5 ovarian, in the experiment with SF-268 CNS, in the experiment with LOX IMVI melanoma and in the experiment on NCI-H23 lung was more than 25 µM each time.
With `COc1ccc(C(=O)Nc2cccc(C3CC(=O)c4c(cc(OC)c(OC)c4OC)O3)c2)cc1` (stereo not drawn), the GI50 with SR leukemia is 0.171 µM; with DU-145 prostate, 2.88 µM; in the experiment on T-47D breast, 2.13 µM; with HL-60(TB) leukemia, 1 µM; with UO-31 renal it was 1.33 µM; with COLO 205 colon it was 2.39 µM. Moreover, the GI50 with OVCAR-5 ovarian was 4.98 µM; in the experiment with SF-268 CNS, 2.29 µM; with LOX IMVI melanoma it was 0.84 µM; in the experiment on NCI-H23 lung it was 2.63 µM. Moreover, the TGI in the experiment with SR leukemia is more than 100 µM; in the experiment with DU-145 prostate, more than 100 µM; in the experiment on T-47D breast it was 8.1 µM; in the experiment with HL-60(TB) leukemia, 3.36 µM; with UO-31 renal, more than 100 µM; in the experiment with COLO 205 colon, 6.57 µM. For the same molecule, the TGI was more than 100 µM in the experiment on OVCAR-5 ovarian, more than 100 µM with SF-268 CNS, 52.4 µM in the experiment on LOX IMVI melanoma and more than 100 µM with NCI-H23 lung.
Take `N#C/C(=C/N1CCN(C(=O)c2ccco2)C1=S)C(N)=O`: the GI50 with SR leukemia is 3.03 µM; with DU-145 prostate, 29.8 µM; in the experiment on T-47D breast it was 9.32 µM; with HL-60(TB) leukemia, 22 µM; with UO-31 renal, 23.5 µM; in the experiment with COLO 205 colon, 24.9 µM. The GI50 with SF-268 CNS is 11.7 µM; in the experiment on LOX IMVI melanoma, 2.5 µM; in the experiment on NCI-H23 lung, 21.4 µM. Besides, the TGI with SR leukemia is more than 100 µM; in the experiment on DU-145 prostate, more than 100 µM; in the experiment on T-47D breast it was more than 100 µM; with HL-60(TB) leukemia, 57.3 µM; in the experiment on UO-31 renal, 51.8 µM; in the experiment on COLO 205 colon, more than 100 µM. Also, the TGI with SF-268 CNS is 36.4 µM; with LOX IMVI melanoma, 7.69 µM; in the experiment with NCI-H23 lung, 44 µM.
For `Nc1nc(Cl)nc2c1ncn2C1O[C@H](CO)[C@@H](O)[C@@H]1F` (stereo partly drawn), the GI50 was 0.387 µM in the experiment with SR leukemia; 0.332 µM in the experiment with DU-145 prostate; 6.94 µM with T-47D breast; 0.0305 µM with HL-60(TB) leukemia; 0.156 µM in the experiment on UO-31 renal; 0.523 µM in the experiment with COLO 205 colon. Further, the figures for the GI50 in the experiment on OVCAR-5 ovarian, in the experiment on SF-268 CNS and in the experiment on LOX IMVI melanoma were 3 µM, 0.229 µM and 0.468 µM, respectively. Moreover, the TGI in the experiment on SR leukemia was more than 100 µM; in the experiment on DU-145 prostate it was more than 32.4 µM; in the experiment with T-47D breast, more than 100 µM; in the experiment on HL-60(TB) leukemia, 0.14 µM; in the experiment with UO-31 renal it was 1.24 µM; in the experiment with COLO 205 colon, more than 100 µM. Moreover, the results for the TGI in the experiment on OVCAR-5 ovarian, in the experiment on SF-268 CNS and in the experiment with LOX IMVI melanoma were more than 100 µM, more than 54 µM and more than 100 µM, respectively.

For orientation: GI50 means the concentration that inhibits growth by half. For orientation: TGI means the concentration giving total growth inhibition. Low readings indicate more potent growth arrest, high ones less potent growth arrest.
